Assay results reported in PubChem BioAssay AID1794809.
Inconclusive results are not listed.

Molecular target: Sodium- and chloride-dependent glycine transporter 1 (Homo sapiens) (UniProt P48067)
Assay: PubChem AID 1794809
Details: HEK-293 SLC6A9 OE, FLIPR membrane potential dye

Sequence of Sodium- and chloride-dependent glycine transporter 1 (Homo sapiens) (P48067 whole entry, looked up): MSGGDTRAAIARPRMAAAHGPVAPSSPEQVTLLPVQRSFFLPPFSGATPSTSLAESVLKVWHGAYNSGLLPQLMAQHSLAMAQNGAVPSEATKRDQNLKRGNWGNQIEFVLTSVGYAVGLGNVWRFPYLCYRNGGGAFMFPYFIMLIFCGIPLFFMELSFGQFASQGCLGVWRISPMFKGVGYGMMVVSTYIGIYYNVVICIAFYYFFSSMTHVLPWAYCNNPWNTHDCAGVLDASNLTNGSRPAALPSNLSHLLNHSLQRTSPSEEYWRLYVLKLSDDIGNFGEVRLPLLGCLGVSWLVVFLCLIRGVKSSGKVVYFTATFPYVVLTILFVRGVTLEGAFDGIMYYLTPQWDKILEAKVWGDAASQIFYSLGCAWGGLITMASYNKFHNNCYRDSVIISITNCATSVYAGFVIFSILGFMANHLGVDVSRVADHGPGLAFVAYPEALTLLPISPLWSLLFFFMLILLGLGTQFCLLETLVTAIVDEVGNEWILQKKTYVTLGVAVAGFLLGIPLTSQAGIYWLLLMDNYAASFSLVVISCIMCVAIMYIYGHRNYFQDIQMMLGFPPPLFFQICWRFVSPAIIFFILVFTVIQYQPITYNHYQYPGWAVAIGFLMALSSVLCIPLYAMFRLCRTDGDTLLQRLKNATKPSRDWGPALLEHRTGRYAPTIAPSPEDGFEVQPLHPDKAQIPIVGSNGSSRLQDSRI

EC50: 106 µM
Structure (SMILES): NCC(=O)O
